Source: US20160095823A1, “METHODS OF USING PROPOFOL DERIVATIVES FOR ANALGESIA” (priority 2005, published 2016)
Where “and” joins values, the source holds several entries; their conditions need not be identical. Equal entries are not always repeated. Where two headings read alike, the source gives them in different places.

What was measured:
[1] = biological target: T1, α1 homomeric glycine receptors (Rattus norvegicus, UniProt P07727); assay: Co-activation of the current response to 10 μM glycine, whole-cell patch clamp, transfected HEK 293 cells; format: cell-based; conditions: for nH (Hill coefficient), coactivating response, α1 homomer: co-applied with 10 μM glycine, Hill fit, ± s.d.
T1 construct: expressed in transfected cells; host or cells: HEK 293, transient electroporation, cDNA in pCIS2, GFP cDNA co-transfected as marker
T1 sequence (P07727 29-457): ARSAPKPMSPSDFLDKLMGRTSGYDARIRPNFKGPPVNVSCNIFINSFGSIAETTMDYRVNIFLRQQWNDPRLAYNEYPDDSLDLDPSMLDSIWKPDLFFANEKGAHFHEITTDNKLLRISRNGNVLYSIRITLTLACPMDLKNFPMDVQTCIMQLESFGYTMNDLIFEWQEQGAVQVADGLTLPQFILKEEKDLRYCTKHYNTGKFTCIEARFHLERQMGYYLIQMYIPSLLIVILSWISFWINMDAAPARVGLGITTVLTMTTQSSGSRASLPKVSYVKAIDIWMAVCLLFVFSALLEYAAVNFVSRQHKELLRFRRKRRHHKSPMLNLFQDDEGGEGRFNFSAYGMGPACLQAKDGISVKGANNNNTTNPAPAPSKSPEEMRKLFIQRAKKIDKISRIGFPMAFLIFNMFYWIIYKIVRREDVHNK
Experimental: (§1) Reduced sensitivity to 1000 μM picrotoxin in α1β heteromeric receptors was used as an assay of the efficacy of β subunit expression. Cells were cultured in Dulbecco's modified Eagle's medium (DMEM, Biochrom, Berlin, Germany), supplemented with 10% fetal calf serum (FCS, Biochrom, Berlin, Germany), 100 U ml^−1 penicillin and 100 μg ml^−1 streptomycin at 37° C. in a 5% CO2/air incubator. For transfection, cells were suspended in a buffer containing 50 mM K2HPO4 and 20 mM K-acetate, pH 7.35. […] To visualize transfected cells, they were co-transfected with cDNA of green fluorescent protein (GFP 10 μg ml^−1). For transfection, we used an electroporation device by EquiBio (Kent, UK). Transfected cells were replated on glass-coverslips and incubated 15-24 h before recording.
(§2) The phenol derivatives under investigation were prepared as 1 M stock solution in ethanol, light-protected and stored in glass vessels at −20° C. Concentrations were calculated from the amount injected into the glass vials. Drug-containing vials were vigorously vortexed for 60 min.
(§3) Patch electrodes contained [mM] KCl 140, MgCl2 2, EGTA 11, HEPES 10, glucose 10; the bath solution contained [mM] NaCl 162, KCl 5.3, NaHPO4 0.6, KH2PO4 0.22, HEPES 15, glucose 5.6.
(§4) Standard whole-cell experiments (Hamill et al., (1981) Pflügers Arch., 391, 85-100.) were performed at −30 mV membrane potential. A tight electrical seal of several GΩ formed between the cell membrane and a patch-clamp electrode allows inward currents due to agonist-induced channel activation to resolve in the pA range. Electrical resistance of the pipettes was around 5 MΩ, corresponding to a total access resistance in the whole-cell configuration of about 10 MΩ. An ultra-fast liquid filament switch technique (Franke et al., (1987) Neurosci. Lett., 77, 199-204) was used for the application of the agonist in pulses of 2 s duration. The agonist and/or the drug under investigation were applied to the cells via a smooth liquid filament achieved with a single outflow (glass tubing 0.15 mm inner diameter) connected to a piezo crystal. The cells were placed at the interface between this filament and the continuously flowing background solution. When a voltage pulse was applied to the piezo, the tube was moved up and down onto or away from the cell under investigation. […] The contents of these reservoirs were mixed at a junction immediately before entering the superfusion chamber.
(§5) A new cell was used for each drug and each protocol, at least three different experiments were performed for each setting. The amount of the diluent ethanol corresponding to the highest drug concentration used was 34 000 μM.
(§6) For data acquisition and further analysis the inventors used the Axopatch 200B amplifier in combination with pClamp6 software (Axon Instruments, Union City, Calif., USA). Currents were filtered at 2 kHz. Fitting procedures were performed using a non-linear least-squares Marquardt-Levenberg algorithm. Details are provided in the appropriate figure legends or in the results section.
(§7) Activated or co-activated currents were normalized to their own maximum response. […] In these cases, the maximum response was the response at the highest concentration of the test compound for which a reliable response could be recorded.
(§8) Only results obtained with α1β receptors were enrolled in the statistical tests. […] Statistical analysis was performed in order to reveal differences in the maximum effect on the one hand and in the concentrations required to achieve half-maximum effect (EC50) on the other between halogenated and non-halogenated analogues, between compounds with one vs. two methyl groups, or between compounds with ortho- or meso-position of the methyl groups with respect to the phenolic hydroxyl group, respectively. Curve fitting and parameter estimation of the Hill curves were performed using the program “PROC NLMIXED” of SAS Release 8.02.

[2] = biological target: T2, α1β heteromeric glycine receptors (Rattus norvegicus, UniProt P07727); assay: as above; format: cell-based; conditions: for nH (Hill coefficient), coactivating response, α1β heteromer: co-applied with 10 μM glycine, Hill fit, ± s.d.; for half-maximum concentration for glycine receptor co-activation, fold lower than for half-maximum blockade of sodium channels: selectivity versus reported sodium channel block
T2 construct: expressed in transfected cells; host or cells: HEK 293, transient electroporation, α:β cDNA 1:10, pCIS2 vector
Experimental: as §1, §2, §3, §4, §5, §6, §7, §8

[3] = tested on: voltage-operated sodium channels; conditions: cited from earlier work
[4] = biological target: T1, α1 homomeric glycine receptors; assay: Direct activation of Cl- inward currents (agonist applied alone), whole-cell patch clamp, HEK 293; format: cell-based; conditions: for directly activated current as % of the maximum glycine (1000 μM) response: 3000 μM compound, without glycine, α1, n=3; for EC50: read-out: half-maximum concentration (EC50) for direct activation
Experimental: as §1, §4, §5, §6, §7

[5] = biological target: T2, α1β heteromeric glycine receptors; assay: as above; format: cell-based; conditions: for directly activated current as % of the maximum glycine (1000 μM) response: 3000 μM compound, without glycine, α1β, n=3; for EC50: read-out: half-maximum concentration (EC50) for direct activation
Experimental: as §1, §4, §5, §6, §7

glycine receptors = biological target: T3, glycine receptors (Rattus norvegicus, UniProt P07727); assay: Inhibitory effects (open channel block) on co-application with saturating 1000 μM glycine; format: cell-based; conditions: co-applied with 1000 μM glycine, 3 experiments
T3 construct: expressed in transfected cells; host or cells: HEK 293
T3 sequence (P07727 29-457): T1 sequence (P07727 29-457)
Experimental: as §4
A new cell was used for each drug and each protocol, at least three different experiments were performed for each setting. […]

[6] = biological target: T4, α-subunits of glycine receptors from the rat coexpressed with human β subunits (Rattus norvegicus, UniProt P07727); assay: Example 2: co-activation of the current response to 10 μM glycine, whole-cell mode, HEK293 cells; format: cell-based; conditions: for EC50 values in the presence of glycine (co-activation): Example 2; for concentrations at which the co-activating effect is overridden by inhibitory effects: co-applied with 10 μM glycine; for enhancement of glycine receptor function / EC50 for co-activation, fold lower concentrations than propofol: glycine receptors heterologously expressed in HEK293 cells
T4 construct: expressed in transfected cells; host or cells: HEK293
Experimental: (§9) Small cells were studied in the whole-cell mode using an ultra-fast application device.
The results presented in FIG. 10 were corroborated by repeating the tests carried out to provide the data shown in FIG. 10 to provide the data shown in FIG. 11. […] Note from FIGS. 10 and 11 that the co-activating effect is observed in the concentration range between […]. The co-activating effect is overridden by inhibitory effects at higher concentrations (≧1000 μM). […] Small cells were studied in the whole-cell mode using an ultra-fast application device.

[7] = biological target: T4, α-subunits of glycine receptors from the rat coexpressed with human β subunits; assay: Example 2: direct activation in the absence of glycine, whole-cell mode, HEK293 cells; format: cell-based; conditions: for EC50 values in the absence of the natural transmitter glycine: Example 2; for direct activating effect, fold higher concentrations than the co-activating effect: absence of glycine versus 10 μM glycine
Description: as §9
The solid line is a Hill fit to the data with the indicated parameters. Note that the direct activating effect is observed at 1000-fold higher concentrations than the co-activating effect.

[8] = biological target: T1, α1 homomeric glycine receptors; assay: Picrotoxin block of the 1000 μM glycine current (check of β subunit expression); format: cell-based; conditions: picrotoxin 1000 μM co-applied with 1000 μM glycine
Experimental: as §1
(§10) A total of 94 cells were included in the study.

α1β glycine receptors = biological target: T5, α1β glycine receptors (Rattus norvegicus, UniProt P07727); assay: as above; format: cell-based; conditions: picrotoxin 1000 μM co-applied with 1000 μM glycine
T5 construct: expressed in transfected cells; host or cells: HEK 293, transient electroporation, α:β cDNA 1:10, pCIS2 vector
Experimental: as §1, §10

[9] = read-out: EC50 (μM), normalised coactivating response, α1 homomer
[10] = read-out: EC50 (μM), normalised coactivating response, α1β heteromer

T2 sequence (P20781 23-496 partner, one chain of several): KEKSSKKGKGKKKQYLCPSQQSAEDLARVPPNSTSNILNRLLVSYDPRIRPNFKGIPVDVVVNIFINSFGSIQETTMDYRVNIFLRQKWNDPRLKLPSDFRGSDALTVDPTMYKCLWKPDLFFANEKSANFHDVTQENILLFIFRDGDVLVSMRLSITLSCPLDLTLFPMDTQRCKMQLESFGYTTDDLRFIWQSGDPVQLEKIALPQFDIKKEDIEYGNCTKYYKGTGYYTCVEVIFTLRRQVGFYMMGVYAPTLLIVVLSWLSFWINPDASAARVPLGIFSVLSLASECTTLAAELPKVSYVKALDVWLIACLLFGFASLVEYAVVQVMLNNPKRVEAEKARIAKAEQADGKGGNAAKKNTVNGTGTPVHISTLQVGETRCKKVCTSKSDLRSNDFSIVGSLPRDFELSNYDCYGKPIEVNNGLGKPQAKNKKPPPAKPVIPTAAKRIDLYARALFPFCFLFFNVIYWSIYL
T4 sequence (P48167 23-497 partner, one chain of several): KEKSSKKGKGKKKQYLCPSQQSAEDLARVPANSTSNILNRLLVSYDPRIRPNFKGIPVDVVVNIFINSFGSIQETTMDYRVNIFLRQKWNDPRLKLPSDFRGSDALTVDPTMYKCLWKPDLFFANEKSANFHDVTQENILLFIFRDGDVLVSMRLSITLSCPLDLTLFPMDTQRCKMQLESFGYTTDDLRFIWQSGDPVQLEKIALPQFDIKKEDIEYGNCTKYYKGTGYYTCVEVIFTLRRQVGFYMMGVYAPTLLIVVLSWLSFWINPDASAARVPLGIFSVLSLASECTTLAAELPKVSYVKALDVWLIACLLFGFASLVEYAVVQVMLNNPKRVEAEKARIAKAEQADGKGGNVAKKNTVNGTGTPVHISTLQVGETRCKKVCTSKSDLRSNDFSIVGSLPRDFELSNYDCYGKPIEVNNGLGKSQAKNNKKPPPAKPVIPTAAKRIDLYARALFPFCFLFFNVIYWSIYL
T5 sequence (P20781 23-496 partner, one chain of several): as the sequence (P20781 23-496 partner, one chain of several) above

Cc1ccccc1O [2 methylphenol]
EC50 [1]: 70 ± 29 µM
nH (Hill coefficient), coactivating response, α1 homomer [1]: 0.7 ± 0.1
EC50 [2]: 448 ± 89 µM
nH (Hill coefficient), coactivating response, α1β heteromer [2]: 1.2 ± 0.2

Cc1cccc(C)c1O [2,6 dimethylphenol]
IC50 ([3]; membrane potential close to the physiological resting potential, read-out: half-maximum blockade of voltage-operated neuronal sodium channels): 187 µM
directly activated current as % of the maximum glycine (1000 μM) response [4]: 32±6%
EC50 [4]: 1410 ± 101 µM
directly activated current as % of the maximum glycine (1000 μM) response [5]: 33±10%
EC50 [5]: 1550 ± 164 µM
nH (Hill coefficient), coactivating response, α1 homomer [1]: 1.5 ± 0.4
EC50 [1, 9]: 226 ± 104 µM
nH (Hill coefficient), coactivating response, α1β heteromer [2]: 1.2 ± 0.1
EC50 [2, 10]: 370 µM and 373 µM

Cc1cc(O)ccc1Cl [3 methyl-4-chlorophenol]
IC50 ([3]; resting state, read-out: half-maximum block of sodium channels): 400 µM
EC50 [1]: 8 ± 5 µM
nH (Hill coefficient), coactivating response, α1 homomer [1]: 1.1 ± 0.4
EC50 [2]: 4 µM
nH (Hill coefficient), coactivating response, α1β heteromer [2]: 1.2 ± 0.3
half-maximum concentration for glycine receptor co-activation, fold lower than for half-maximum blockade of sodium channels [2]: ~100 fold
concentration producing a reduction in peak current amplitude with response rebound (glycine receptors): > 600 µM

Cc1cccc(O)c1 [3 methylphenol]
nH (Hill coefficient), coactivating response, α1 homomer [1]: 0.9 ± 0.3
EC50 [1, 9]: 59 ± 19 µM
nH (Hill coefficient), coactivating response, α1β heteromer [2]: 1.0 ± 0.1
EC50 [2, 10]: 222 ± 45 µM

Cc1cc(O)cc(C)c1Cl [3,5 dimethyl-4-chlorophenol]
nH (Hill coefficient), coactivating response, α1 homomer [1]: 1.4 ± 2.9
EC50 [1, 9]: 13 ± 4 µM
nH (Hill coefficient), coactivating response, α1β heteromer [2]: 1.3 ± 0.1
EC50 [2, 10]: 11 ± 2 µM
half-maximum concentration for glycine receptor co-activation, fold lower than for half-maximum blockade of sodium channels [2]: about 10 fold
concentration producing a reduction in peak current amplitude with response rebound (glycine receptors): > 300 µM

Cc1cc(C)cc(O)c1 [3,5 dimethylphenol]
directly activated current as % of the maximum glycine (1000 μM) response [4]: 30±12%
EC50 [4]: 1470 ± 208 µM
directly activated current as % of the maximum glycine (1000 μM) response [5]: 38±5%
EC50 [5]: 1470 ± 83 µM
nH (Hill coefficient), coactivating response, α1 homomer [1]: 1.7 ± 0.9
EC50 [1, 9]: 254 ± 139 µM
nH (Hill coefficient), coactivating response, α1β heteromer [2]: 1.3 ± 0.2
EC50 [2, 10]: 308 ± 46 µM

CC(C)c1cc(Br)cc(C(C)C)c1O [4-bromopropofol, 4-bromo-2,6 di-isopropylphenol]
EC50 values in the presence of glycine (co-activation) [6]: single-digit nanomolar range
concentrations at which the co-activating effect is overridden by inhibitory effects [6]: > 1000 µM
enhancement of glycine receptor function / EC50 for co-activation, fold lower concentrations than propofol [6]: 1000 fold
EC50 values in the absence of the natural transmitter glycine [7]: single-digit micromolar range
direct activating effect, fold higher concentrations than the co-activating effect [7]: 1000 fold

CC(C)c1cc(I)cc(C(C)C)c1O [4-iodopropofol, 4-iodo-2,6 di-isopropylphenol]
EC50 values in the presence of glycine (co-activation) [6]: single-digit nanomolar range
concentrations at which the co-activating effect is overridden by inhibitory effects [6]: > 1000 µM
enhancement of glycine receptor function / EC50 for co-activation, fold lower concentrations than propofol [6]: 1000 fold
EC50 values in the absence of the natural transmitter glycine [7]: single-digit micromolar range
direct activating effect, fold higher concentrations than the co-activating effect [7]: 1000 fold

NCC(=O)O [glycine]
current response evoked by 10 μM glycine, % of the response to 1000 μM glycine ([4]; α1 receptors, n=24): 46±5%
current response evoked by 10 μM glycine, % of the response to 1000 μM glycine ([5]; α1β receptors, n=34): 21±7%

picrotoxin
block of receptors by picrotoxin [8]: 55±0.05%
block of receptors by picrotoxin (α1β glycine receptors): 19±0.05%
